Assay results published in US20160002204A1 (Board of Regents, The University of Texas System, priority 2014, published 2016).

The compounds below were run against T1, GLS1 (purified recombinant human GAC) (Homo sapiens, UniProt O94925) (assay: GLS1 enzymatic activity assay (dual-coupled, Amplex UltraRed/resorufin)).
T1 sequence (O94925 55-598 isoform O94925-3 limits assumed): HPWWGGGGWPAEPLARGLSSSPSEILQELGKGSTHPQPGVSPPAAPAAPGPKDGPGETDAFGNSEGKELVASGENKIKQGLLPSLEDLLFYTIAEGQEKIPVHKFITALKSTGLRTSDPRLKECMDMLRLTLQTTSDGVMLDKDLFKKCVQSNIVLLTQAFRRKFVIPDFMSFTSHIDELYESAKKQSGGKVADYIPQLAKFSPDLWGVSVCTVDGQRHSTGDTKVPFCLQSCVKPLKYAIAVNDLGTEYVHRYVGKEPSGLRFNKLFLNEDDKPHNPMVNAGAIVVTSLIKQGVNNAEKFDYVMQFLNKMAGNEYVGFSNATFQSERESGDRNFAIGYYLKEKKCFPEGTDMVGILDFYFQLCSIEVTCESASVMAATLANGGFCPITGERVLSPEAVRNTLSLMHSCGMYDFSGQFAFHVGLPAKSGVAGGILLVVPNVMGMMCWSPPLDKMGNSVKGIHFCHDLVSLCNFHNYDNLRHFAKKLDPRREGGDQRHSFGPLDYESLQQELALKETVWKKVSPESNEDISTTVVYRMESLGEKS
Format: biochemical
Description: GLS1 Enzymatic Activity Assay
The inhibition of purified recombinant human GAC by varying concentrations of inhibitors is assessed via a dual-coupled enzymatic assay. The glutamate produced by the glutaminase reaction is used by glutamate oxidase to produce α-ketoglutarate, ammonia, and hydrogen peroxide, with this hydrogen peroxide subsequently being used by horseradish peroxidase to produce resorufin in the presence of Amplex UltraRed. The assay buffer consisted of 50 mM Hepes (pH 7.4), 0.25 mM EDTA and 0.1 mM Triton X-100. GAC was incubated with potassium phosphate (10 minutes at room temperature) prior to incubation with inhibitor (10 minutes at room temperature). The final reaction conditions were as follows: 2 nM GAC, 50 mM potassium phosphate, 100 mU/mL glutamate oxidase (Sigma), 1 mM glutamine (Sigma), 100 mU/mL horseradish peroxidase (Sigma), 75 μM Amplex UltraRed (Life Technologies), and 1% (v/v) DMSO. The production of resorufin was monitored on a Perkin Elmer Envision plate reader (excitation 530 nm, emission 590 nm) either in a kinetics or endpoint mode (at 20 minutes). IC50 values were calculated using a four-parameter logistic curve fit.

Compound	IC50 [nM]
Nc1ccn(CCCCc2ccc(NC(=O)Cc3ccccc3)nn2)c(=O)n1 [Example 21, N-(6-(4-(4-amino-2-oxopyrimidin-1(2H)-yl)butyl)pyridazin-3-yl)-2-phenylacetamide]	500 to 5000
CC(C)CS(=O)(=O)Nc1ccn(CCCCc2ccc(NC(=O)Cc3ccccc3)nn2)c(=O)n1 [Example 26, N-(6-(4-(4-(2-methylpropylsulfonamido)-2-oxopyrimidin-1(2H)-yl)butyl)pyridazin-3-yl)-2-phenylacetamide]	500 to 5000
C[C@@H](NC(=O)c1ccn(CCCCn2cc(C(=O)NCc3cccc(OC(F)(F)F)c3)nn2)c(=O)c1)C(N)=O [Example 137, 1-[4-(4-{[(1R)-1-carbamoylethyl]carbamoyl}-2-oxo-1,2-dihydropyridin-1-yl)butyl]-N-{[3-(trifluoromethoxy)phenyl]methyl}-1H-1,2,3-triazole-4-carboxamide]	500 to 5000
Nc1ccn(CCCCn2cc(C(=O)NCc3cccc(C(F)(F)F)c3)nn2)c(=O)c1 [Example 140, 1-[4-(4-amino-2-oxo-1,2-dihydropyridin-1-yl)butyl]-N-{[3-(trifluoromethyl)phenyl]methyl}-1H-1,2,3-triazole-4-carboxamide]	500 to 5000
CCN1CCC(CC(=O)Nc2ccn(CCCCn3cc(C(=O)NCc4cccc(OC(F)(F)F)c4)nn3)c(=O)c2)CC1 [Example 207, 1-(4-{4-[2-(1-ethylpiperidin-4-yl)acetamido]-2-oxo-1,2-dihydropyridin-1-yl}butyl)-N-{[3-(trifluoromethoxy)phenyl]methyl}-1H-1,2,3-triazole-4-carboxamide]	500 to 5000
CCN1CCC(CC(=O)Nc2ccn(CCC(F)Cn3cc(C(=O)NCc4cccc(OC(F)(F)F)c4)nn3)c(=O)c2)CC1 (stereo not shown) [Example 218, 1-(4-{4-[2-(1-ethylpiperidin-4-yl)acetamido]-2-oxo-1,2-dihydropyridin-1-yl}-2-fluorobutyl)-N-{[3-(trifluoromethoxy)phenyl]methyl}-1H-1,2,3-triazole-4-carboxamide]	100 to 500
CCOC(=O)c1cn(CC(F)CCn2ccc(NC(=O)CC3CCCCC3)c(F)c2=O)nn1 (stereo not shown) [Example 225, ethyl 1-{4-[4-(2-cyclohexylacetamido)-3-fluoro-2-oxo-1,2-dihydropyridin-1-yl]-2-fluorobutyl}-1H-1,2,3-triazole-4-carboxylate]	500 to 5000
O=C1CN(CC(=O)Nc2ccn(CCC(F)Cn3cc(C(=O)NCc4cccc(OC(F)(F)F)c4)nn3)c(=O)c2)CCN1 (stereo not shown) [Example 230, 1-(2-fluoro-4-{2-oxo-4-[2-(3-oxopiperazin-1-yl)acetamido]-1,2-dihydropyridin-1-yl}butyl)-N-{[3-(trifluoromethoxy)phenyl]methyl}-1H-1,2,3-triazole-4-carboxamide]	100 to 500
CN1CCN(CC(=O)Nc2ccn(CCC(F)Cn3cc(C(=O)NCc4cccc(OC(F)(F)F)c4)nn3)c(=O)c2)CC1 (stereo not shown) [Example 254, 1-(2-fluoro-4-{4-[2-(4-methylpiperazin-1-yl)acetamido]-2-oxo-1,2-dihydropyridin-1-yl}butyl)-N-{[3-(trifluoromethoxy)phenyl]methyl}-1H-1,2,3-triazole-4-carboxamide]	100 to 500
CC(C)(C)OC(=O)Nc1ccn(CCC(F)Cn2cc(C(=O)NCc3cccc(C(F)(F)F)n3)nn2)c(=O)c1F (stereo not shown) [Example 319, tert-butyl N-(3-fluoro-1-{3-fluoro-4-[4-({[6-(trifluoromethyl)pyridin-2-yl]methyl}carbamoyl)-1H-1,2,3-triazol-1-yl]butyl}-2-oxo-1,2-dihydropyridin-4-yl)carbamate]	100 to 500
Nc1ccn(CCC(F)Cn2cc(C(=O)NCc3cc(C(F)(F)F)ccn3)nn2)c(=O)c1F (stereo not shown) [Example 322, 1-[4-(4-amino-3-fluoro-2-oxo-1,2-dihydropyridin-1-yl)-2-fluorobutyl]-N-{[4-(trifluoromethyl)pyridin-2-yl]methyl}-1H-1,2,3-triazole-4-carboxamide]	> 5000
O=C(Cc1ccccc1)Nc1ccn(CCCn2cc(C(=O)NCc3cccc(OC(F)(F)F)c3)nn2)c(=O)c1 [Example 436, 1-{3-[2-oxo-4-(2-phenylacetamido)-1,2-dihydropyridin-1-yl]propyl}-N-{[3-(trifluoromethoxy)phenyl]methyl}-1H-1,2,3-triazole-4-carboxamide]	> 5000
O=C(NCc1ccccc1)c1ccn(CCCn2cc(C(=O)NCc3cccc(OC(F)(F)F)c3)nn2)c(=O)c1 [Example 437, N-benzyl-2-oxo-1-{3-[4-({[3-(trifluoromethoxy)phenyl]methyl}carbamoyl)-1H-1,2,3-triazol-1-yl]propyl}-1,2-dihydropyridine-4-carboxamide]	> 5000
Cc1ccc(CNC(=O)c2nnc(CCCCn3ccc(NC(=O)Cc4ccccn4)cc3=O)s2)cn1 [Example 444, N-[(6-methylpyridin-3-yl)methyl]-5-(4-{2-oxo-4-[2-(pyridin-2-yl)acetamido]-1,2-dihydropyridin-1-yl}butyl)-1,3,4-thiadiazole-2-carboxamide]	100 to 500
O=C(Cc1ccccn1)Nc1ccn(CCCCc2nnc(C(=O)NCc3ccccn3)s2)c(=O)c1 [Example 448, 5-(4-{2-oxo-4-[2-(pyridin-2-yl)acetamido]-1,2-dihydropyridin-1-yl}butyl)-N-(pyridin-2-ylmethyl)-1,3,4-thiadiazole-2-carboxamide]	500 to 5000
COCCNC(=O)c1nnc(CCCCn2ccc(NC(=O)Cc3ccccn3)cc2=O)s1 [Example 452, N-(2-methoxyethyl)-5-(4-{2-oxo-4-[2-(pyridin-2-yl)acetamido]-1,2-dihydropyridin-1-yl]butyl)-1,3,4-thiadiazole-2-carboxamide]	500 to 5000

The remaining lines, values ahead:

IC50 [nM]	Compound
500 to 5000	CC(C)(C)OC(=O)NCc1cn(CCCCn2ccc(NC(=O)Cc3ccccc3)cc2=O)nn1 [Example 9, tert-Butyl N-[(1-{4-[2-oxo-4-(2-phenylacetamido)-1,2-dihydropyridin-1-yl]butyl}-1H-1,2,3-triazol-4-yl)methyl]carbamate]
500 to 5000	COCCCNc1ccn(CCCCc2ccc(NC(=O)Cc3ccccc3)nn2)c(=O)n1 [Example 25, N-(6-(4-(4-((3-methoxypropyl)amino)-2-oxopyrimidin-1(2H)-yl)butyl)pyridazin-3-yl)-2-phenylacetamide]
500 to 5000	Nc1nnc(CCCCn2ccc(NC(=O)Cc3ccccc3)cc2=O)s1 [Example 30, N-{1-[4-(5-amino-1,3,4-thiadiazol-2-yl)butyl]-2-oxo-1,2-dihydropyridin-4-yl}-2-phenylacetamide]
500 to 5000	O=C(Cc1cccc(OC(F)(F)F)c1)Nc1ccn(CCCCn2cc(C(=O)NCc3ccccc3)nn2)c(=O)n1 [Example 115, N-benzyl-1-[4-(2-oxo-4-{2-[3-(trifluoromethoxy)phenyl]acetamido}-1,2-dihydropyrimidin-1-yl)butyl]-1H-1,2,3-triazole-4-carboxamide]
500 to 5000	C[C@H](NC(=O)c1ccn(CCCCn2cc(C(=O)NCc3cccc(OC(F)(F)F)c3)nn2)c(=O)c1)C(N)=O [Example 138, 1-[4-(4-{[(1S)-1-carbamoylethyl]carbamoyl}-2-oxo-1,2-dihydropyridin-1-yl)butyl]-N-{[3-(trifluoromethoxy)phenyl]methyl}-1H-1,2,3-triazole-4-carboxamide]
500 to 5000	CC(=O)Nc1ccn(CCCCn2cc(C(=O)NCc3cccc(C(F)(F)F)c3)nn2)c(=O)c1 [Example 142, 1-[4-(4-acetamido-2-oxo-1,2-dihydropyridin-1-yl)butyl]-N-{[3-(trifluoromethyl)phenyl]methyl}-1H-1,2,3-triazole-4-carboxamide]
> 5000	Nc1ccn(CCC(F)Cn2cc(C(=O)NCc3cccc(C(F)(F)F)n3)nn2)c(=O)c1F (stereo not shown) [Example 321, 1-[4-(4-amino-3-fluoro-2-oxo-1,2-dihydropyridin-1-yl)-2-fluorobutyl]-N-{[6-(trifluoromethyl)pyridin-2-yl]methyl}-1H-1,2,3-triazole-4-carboxamide]
500 to 5000	COCCNC(=O)c1nnc(CCCCn2ccc(NC(=O)Cc3ccccc3)cc2=O)s1 [Example 449, N-(2-methoxyethyl)-5-{4-[2-oxo-4-(2-phenylacetamido)-1,2-dihydropyridin-1-yl]butyl}-1,3,4-thiadiazole-2-carboxamide]
500 to 5000	O=C(Cc1ccccn1)Nc1ccn(CCCCc2nnc(C(=O)NCc3ncccc3F)s2)c(=O)c1 [Example 457, N-[(3-fluoropyridin-2-yl)methyl]-5-(4-{2-oxo-4-[2-(pyridin-2-yl)acetamido]-1,2-dihydropyridin-1-yl}butyl)-1,3,4-thiadiazole-2-carboxamide]
